Assay results taken from patent US8962612B2, “Tetrahydroisoquinoline derivative” (Astellas Pharma Inc, priority 2011, dated 2015).

Columns and labels:
[1] = biological target: human 5-HT5A receptor (Homo sapiens (Human), UniProt P47898); experiment: Human 5-HT5A receptor binding inhibition test ([3H]5-CT); details: [3H]5-CT binding, membranes of HEK293 cells expressing human 5-HT5A receptor; Ki calculated from IC50, Kd 4.95 nM
Experimental: An open reading frame (ORF; protein coding region) of human 5-HT5A receptor (Genbank AF498985) was cloned from a human hippocampus cDNA library and then inserted into a pCR2.1 vector (Invitrogen), and E. coli carrying the plasmid was cultured in a large scale. Thereafter, a full-length cDNA sequence of the human 5-HT5A receptor was analyzed and recombined into pcDNA3.1 vector (Invitrogen) as an expression vector, followed by a large scale culturing. The HEK293 cells (ATCC) as a human embryonic kidney-derived cell line were seeded, and the expression plasmid (1 μg) obtained as above was added thereto together with LIPOFECTAMINE 2000 (Invitrogen; 2 μl) to introduce genes into the HEK293 cells. Subsequently, expression cells were screened using Geneticin (G418 sulfate 500 μg/ml; KANTO KAGAKU) as a drug resistance marker. The recombinant cells expressing the genes prepared in this manner were cultured for 3 days in Dulbecco's Modified Eagle Medium (D-MEM, Sigma) supplemented with 10% fetal calf serum (FCS), 1% penicillin/streptomycin (Pc./Sm, Invitrogen), and 500 μg/ml G418. The above experimental procedure was performed according to a genetic engineering experiment manual of a known method (Sambrook, J. et al, “Molecular Cloning-A Laboratory manual”, Cold Spring Harbor Laboratory, NY, 1989) or the like, or the instruction attached to the reagents.
The HEK293 cells forced to express the human 5-HT5A receptor were cultured in a F500 plate and collected by being scarped with a scraper. After centrifugation, the sediment was collected, and an incubation buffer (50 mM Tris(HCl), pH 7.4, 10 mM MgSO4, 0.5 mM ethylenediaminetetraacetic acid (EDTA)) was added thereto. After homogenization, centrifugation was performed again, and the sediment was thoroughly suspended in the incubation buffer added thereto. After this procedure was repeated, the protein concentration was measured, thereby completing membrane preparation.
A test compound and 150 μM of a DMSO solution of 5-carboxamide tryptamine (5-CT) were added to a 96-well plate at 2 μl/well and suspended in the incubation buffer, and the HEK293 cells forced to express the human 5-HT5A receptor that were prepared at a concentration of 200 μg/ml were added thereto at 100 μl/well. The cells were incubated for 15 minutes at room temperature, and then a [^3H]5-CT solution (3 nM [^3H]5-CT, incubation buffer) was added thereto at 100 μl/well.
100 μl of the cell solution was separately dispensed into a liquid scintillation vial, and 2 ml of Aquasol II (registered trademark) was added thereto, followed by stirring. Thereafter, the radioactivity thereof was measured using a liquid scintillation counter. The cells were incubated for 60 minutes at 37° C. The reaction mixture was aspirated into a 96-well GF/C filter plate having undergone pretreatment with 0.2% polyethyleneimine, and washed 6 times with an ice-cold 50 mM Tris (pH 7.4) buffer. Thereafter, the GF/C filter plate was dried.
MicroScint™-PS (registered trademark) was added to the plate at 40 μl/well, and the radioactivity remaining on the GF/C filter plate was measured using TopCount.
In each test example, regarding the [^3H]5-CT binding inhibitory activity resulting from the test compound, the radioactivity at the time when only DMSO was added was regarded as 0%, and the radioactivity at the time when 1.5 μM 5-CT was added was regarded as 100% inhibition, thereby calculating an IC50 value. In addition, from a Kd value of [^3H]5-CT obtained from Scatchard analysis, a Ki value was calculated by the following formula. Ki=IC50/(1+concentration of ligand added/Kd(4.95 nM))

[2] = system: male ICR mouse; experiment: MK-801-induced increase in level of physical activity (hyperactivity) of mouse; format: in vivo; details: MK-801 0.3 mg/kg, significance P<0.05 vs vehicle
Experimental: (§1) The improvement effect of the compound of formula (I) on schizophrenia was evaluated by the measurement of the level of physical activity reduced by the administration of the compound, in a model having symptoms induced by methamphetamine (hereinafter, abbreviated to MAP) and MK-801.
(§2) The animals were taken out of a breeding cage, and the test compound was orally administered to the animal. Thereafter, the animals were put in the breeding cage. 30 minutes later, the animals were put in a cage for measurement, and the level of physical activity of the animals administered only with the test compound was measured. Another 30 to 90 minutes later, the animals were taken out, and drugs (MAP; 1.5 mg/kg or MK-801; 0.3 mg/kg dissolved in physiological saline) increasing the level of physical activity were respectively administered to the animals subcutaneously or intraperitoneally. The level of physical activity for a certain period of time (60 minutes) was measured using an instrument measuring a level of physical activity (CompACT AMS, MUROMACHI KIKAI CO., LTD.) by an infrared sensor.
For the normal mouse (mouse administered with physiological saline) and the mouse administered with the medication increasing the level of physical activity, Student's T test was performed in the respective intervals to judge the effect. For the group administered with the test compound, Dunnett's T test was performed for the comparison with a vehicle group, whereby the effect of the compound was tested. When there was a significant difference (P<0.05), the compound was judged to be effective.

[3] = system: male ddy mouse; experiment: Scopolamine-induced spontaneous alternation behavior in mouse (Y-maze); format: in vivo; details: scopolamine 0.5 mg/kg i.p., alternation rate, p<0.05 vs control
Experimental: The improvement effect of the compound of formula (I) on dementia and the cognitive disease of schizophrenia was evaluated by the known test method described above by using a short-term learning disability model.
10 to 30 minutes after the test compound was orally administered, scopolamine at 0.5 mg/kg or MK-801 (physiological saline for a normal group) at 0.15 mg/kg was intraperitoneally administered, and the test was performed 20 minutes after the administration. In addition, for a normal group (group administered with physiological saline) and a control group (group administered with scopolamine at 0.5 mg/kg or MK-801 at 0.15 mg/kg), a vehicle was orally administered when the test compound was administered.
The mouse was put into one end of an arm of a maze (Y-maze) having arms of the same length that extended in three directions. The mouse was allowed to freely explore for 8 minutes, and the number of entries into the arm for the 8 minutes was counted. Moreover, a case where the mouse consecutively entered three different arms was regarded as spontaneous alternation behavior, and a ratio of the number of times of such a behavior to the total entry number was regarded as alternation rate and calculated by the following formula. Alternation rate(%)=number of times of spontaneous alternation behavior/(total entry number−2)×100
When a significant difference (Student's T test) was observed between the normal group and the control group in the alternation rate (%), the learning disability was considered to be induced by the administration of scopolamine or MK-801. By performing Dunnette's test for comparing the test compound-administered groups with the control group, whether or not the test compound has an action […] was determined. In each test, p<0.10 was regarded as a trend, and p<0.05 was regarded as a significant difference.

[4] = system: male ICR mouse; experiment: Methamphetamine (MAP)-induced increase in level of physical activity (hyperactivity) of mouse; format: in vivo; details: oral dose 0.03 mg/kg; MAP 1.5 mg/kg; significance P<0.05 vs vehicle
Experimental: as §1, §2
For the normal mouse (mouse administered with physiological saline) and the mouse administered with the medication increasing the level of physical activity, Student's T test was performed in the respective intervals to judge the effect. […]

[5] = system: BALB/3T3; experiment: Test for evaluating phototoxic effect (neutral red incorporation, UV irradiation); format: cell-based; details: BALB/3T3, UV 70 minutes 1200 μW/cm2 vs non-irradiated
Experimental: 1) BALB/3T3 is peeled from a culture flask, and the cell number is counted.
2) The cell concentration is adjusted to 0.7×10^5 cells/ml, and the cells are seeded into a 96-well plate at 100 μl/well. PBS is added in an amount of 100 μl to a line of wells in both ends where the cells are not seeded.
3) The cells are cultured in a CO2 incubator for 1 day.
4) DMSO is added to a test compound, and the EBSS is further added thereto and dissolved. Ultrasonic waves, heating.
5) The compound solution of the highest concentration is transferred to the adjacent tube by 300 μL. This operation is repeated to prepare solutions having serial dilution concentration.
10) For each compound, compound solutions of 8-serial dilutions are dispensed at 100 μL/well.
11) The plates are allowed to stand still in a dark place (in a drawer of a lab bench) for 60 minutes.
12) Thereafter, the plates are irradiated with UV for 70 minutes (1200 μW/cm^2). The plate not irradiated is put in an empty box.
1) Neutral red (NR) is prepared in an amount of 50 μg/ml
3) The NR solution is dispensed at 100 μL/well.
4) Culturing is performed for 3 hours in a CO2 incubator.
8) The NR eluent is dispensed at 150 μl/well.
10) An absorbance at 540 nm is measured using a microplate reader.
According to the above test example 8, several compounds of formula (I) were evaluated. […] Herein, MPE refers to a value showing Mean Photo Effect. MPE can be calculated according to Equation 2 of the following document, for example.

human 5-HT5A receptor, sequence (P47898 whole entry): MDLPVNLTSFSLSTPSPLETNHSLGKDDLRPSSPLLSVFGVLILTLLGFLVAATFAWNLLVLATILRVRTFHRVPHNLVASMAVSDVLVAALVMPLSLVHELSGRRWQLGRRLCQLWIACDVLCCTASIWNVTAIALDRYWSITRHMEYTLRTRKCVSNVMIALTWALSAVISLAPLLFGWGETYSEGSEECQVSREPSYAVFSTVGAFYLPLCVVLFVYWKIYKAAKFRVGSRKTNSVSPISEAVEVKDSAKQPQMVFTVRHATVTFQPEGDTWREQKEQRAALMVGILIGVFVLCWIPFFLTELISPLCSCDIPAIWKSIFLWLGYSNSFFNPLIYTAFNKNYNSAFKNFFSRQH

Row | SMILES | Ki [1] [nM] | other results
1 | NC(N)=NC(=O)N1CCc2c(Cl)ccc(-c3c(F)cncc3F)c2C1 [Ex 61] | 2.5 | –
2 | NC(N)=NC(=O)N1CCc2c(F)ccc(-c3ncc(Cl)cc3F)c2C1 [Ex 4, 8-(5-chloro-3-fluoropyridin-2-yl)-N-(diaminomethylene)-5-fluoro-3,4-dihydroisoquinoline-2(1H)-carboxamide] | 4.3 | –
3 | Cl.NC(N)=NC(=O)N1CCc2c(F)ccc(-c3ncc(F)cc3F)c2C1 [Ex 46] | 6.9 | hyperactivity induced by MK-801 ([2]; oral dose 0.03 mg/kg): significantly suppressed; scopolamine-induced spontaneous alternation behavior ([3]; oral dose 0.003 mg/kg): significantly inhibited
4 | NC(N)=NC(=O)N1CCc2c(F)ccc(-c3c(F)cccc3F)c2C1 [Ex 28] | 1.1 | hyperactivity induced by MK-801 ([2]; oral dose 0.03 mg/kg): significantly suppressed; hyperactivity induced by MAP [4]: significantly inhibited; scopolamine-induced spontaneous alternation behavior ([3]; oral dose 0.003 mg/kg): significantly inhibited; MPE (Mean Photo Effect) [5]: 0.00
5 | NC(N)=NC(=O)N1CCc2c(Cl)ccc(-c3c(F)cc(F)cc3F)c2C1 [Ex 23] | 1.1 | hyperactivity induced by MK-801 ([2]; oral dose 0.03 mg/kg): significantly suppressed; scopolamine-induced spontaneous alternation behavior ([3]; oral dose 0.003 mg/kg): significantly inhibited; MPE (Mean Photo Effect) [5]: 0.00
6 | Cc1ccc(-c2ncc(F)cc2F)c2c1CCN(C(=O)N=C(N)N)C2 [Ex 60] | 3.9 | hyperactivity induced by MK-801 ([2]; oral dose 0.03 mg/kg): significantly suppressed
7 | NC(N)=NC(=O)N1Cc2c(-c3ccc(F)cc3F)ccc(Cl)c2C(F)C1 (stereo not drawn) [Ex 49] | 6.6 | –
8 | NC(N)=NC(=O)N1CCc2c(Cl)ccc(-c3ccc(F)cc3F)c2C1 [Ex 44] | 2.7 | –
9 | NC(N)=NC(=O)N1CCc2c(F)ccc(-c3c(F)cc(F)cc3F)c2C1 [Ex 26] | 0.68 | hyperactivity induced by MK-801 ([2]; oral dose 0.03 mg/kg): significantly suppressed; hyperactivity induced by MAP [4]: significantly inhibited; scopolamine-induced spontaneous alternation behavior ([3]; oral dose 0.03 mg/kg): significantly inhibited; MPE (Mean Photo Effect) [5]: 0.00
10 | NC(N)=NC(=O)N1CCc2cccc(-c3cc(F)c(F)cc3F)c2C1 [Ex 8] | 3.6 | –

The next lines start with results.

Row | Ki [1] [nM] | SMILES | other results
11 | 1.6 | CC1CN(C(=O)N=C(N)N)Cc2c(-c3c(F)cccc3F)ccc(F)c21 (stereo not drawn) [Ex 69] | –
12 | 0.88 | NC(N)=NC(=O)N1Cc2c(-c3c(F)cc(F)cc3F)ccc(F)c2C2(CC2)C1 [Ex 74] | –
13 | 4.2 | NC(N)=NC(=O)N1CCc2cccc(-c3ncc(F)cc3F)c2C1 [Ex 81] | –
14 | 1.3 | NC(N)=NC(=O)N1Cc2c(-c3cc(F)c(F)cc3F)ccc(F)c2C2(CC2)C1 [Ex 78] | hyperactivity induced by MK-801 ([2]; oral dose 0.1 mg/kg): significantly suppressed; scopolamine-induced spontaneous alternation behavior ([3]; oral dose 0.03 mg/kg): significantly inhibited
15 | 0.95 | NC(N)=NC(=O)N1Cc2c(-c3ccccc3F)ccc(F)c2C2(CC2)C1 [Ex 86] | –
16 | 1.9 | NC(N)=NC(=O)N1CCc2c(F)ccc(-c3ncc(Cl)cc3Cl)c2C1 [Ex 62] | hyperactivity induced by MK-801 ([2]; oral dose 0.01 mg/kg): significantly suppressed; scopolamine-induced spontaneous alternation behavior ([3]; oral dose 0.003 mg/kg): significantly inhibited
17 | 0.75 | NC(N)=NC(=O)N1Cc2c(-c3c(F)cccc3F)ccc(F)c2C2(CC2)C1 [Ex 66] | –
18 | 0.85 | NC(N)=NC(=O)N1Cc2c(-c3ccc(F)cc3F)ccc(F)c2C2(CC2)C1 [Ex 80] | –
19 | 2.7 | NC(N)=NC(=O)N1Cc2c(C3CC3)ccc(F)c2C2(CC2)C1 [Ex 76] | hyperactivity induced by MK-801 ([2]; oral dose 0.1 mg/kg): significantly suppressed
20 | 3.7 | NC(N)=NC(=O)N1CCc2c(F)ccc(-c3cc(F)c(F)cc3F)c2C1 [Ex 79] | –
